Measurements: patent publication US20130157860A1, “METHOD OF CONTROLLING A WEED IN A GRAMINEOUS BIOMASS CROP” (SUMITOMO CHEMICAL COMPANY, LIMITED, priority 2011, published 2013)

How the values were obtained:
[1] = tested on: Setaria faberi, Amaranthus retroflexus, Chenepodium album, and Stellaria media; experiment: Test Example 1: pre-emergence application, herbicidal activity; type: in vivo; conditions: pre-emergence application to soil surface, 25 to 1000 g per 1 hectare, greenhouse, evaluated 21 days after treatment
[2] = tested on: switchgrass, miscanthus, giant reed, reed canarygrass, blue stem, erianthus, napier grass, and spartina; experiment: Test Example 2: post-emergence application, phytotoxicity on biomass crops; type: in vivo
Method: (§1) A field soil is filled into a 32 cm×22 cm plastic case having a depth of 8 cm, seeds of switchgrass, miscanthus, giant reed, reed canarygrass, blue stem, erianthus, napier grass, spartina, Echinochloa crus-galli, Digitaria adscendens, Chenopodium album and Abutilon theophrasti are seeded thereon, and the seeds are covered with about 0.5 cm of a soil, and cultivated in a greenhouse for 2 weeks.

[3] = tested on: switchgrass, miscanthus, giant reed, reed canarygrass, blue stem, erianthus, napier grass, and spartina; experiment: Test Example 1: pre-emergence application, phytotoxicity on biomass crops
Method: Pre-emergence application in switchgrass, miscanthus, giant reed, reed canarygrass, blue stem, erianthus, napier grass and spartina
A field soil is filled into a 32 cm×22 cm plastic case having a depth of 8 cm, seeds of switchgrass, miscanthus, giant reed, reed canarygrass, blue stem, erianthus, napier grass, spartina, Setaria faberi, Amaranthus retroflexus, Chenepodium album, and Stellaria media are seeded thereon, and the seeds are covered with about 0.5 cm of a soil.

[4] = tested on: Echinochloa crus-galli, Digitaria adscendens, Chenopodium album and Abutilon theophrasti; experiment: Test Example 2: post-emergence application, herbicidal activity; type: in vivo; conditions: post-emergence application after 2 weeks of cultivation, 25 to 1000 g per 1 hectare, greenhouse, evaluated 21 days after treatment
Method: as §1

[5] = post-emergence application after 2 weeks of cultivation, 25 to 1000 g per 1 hectare, greenhouse, evaluated 21 days after treatment
[6] = pre-emergence application to soil surface, 25 to 1000 g per 1 hectare, greenhouse, evaluated 21 days after treatment

## CCOc1cc(Oc2ccc(C(F)(F)F)cc2Cl)ccc1[N+](=O)[O-] [oxyfluorfen]
[1]
  herbicidal activity: high herbicidal activity
[2]; [5]
  phytotoxicity: without causing a significant phytotoxicity
[3]; [6]
  phytotoxicity: without causing significant phytotoxicity
[4]
  herbicidal activity: high herbicidal activity

## Cc1nn(-c2cc(NS(C)(=O)=O)c(Cl)cc2Cl)c(=O)n1C(F)F [sulfentrazone]
[1]
  herbicidal activity: high herbicidal activity
[2]; in vivo
  phytotoxicity: without causing a significant phytotoxicity
[3]; in vivo
  phytotoxicity: without causing significant phytotoxicity
[4]
  herbicidal activity: high herbicidal activity

## C#CCN1C(=O)COc2cc(F)c(-n3c(=O)n(C)c(=S)n(C)c3=O)cc21 [compound represented by the formula (I)]
[1]
  herbicidal activity: high herbicidal activity
[2]; in vivo
  phytotoxicity: without causing a significant phytotoxicity
[3]; in vivo
  phytotoxicity: without causing significant phytotoxicity
[4]
  herbicidal activity: high herbicidal activity

## C#CCN1C(=O)COc2cc(F)c(N3C(=O)C4=C(CCCC4)C3=O)cc21 [flumioxazin]
[1]
  herbicidal activity: high herbicidal activity
[2]; [5]
  phytotoxicity: without causing a significant phytotoxicity
[3]; [6]
  phytotoxicity: without causing significant phytotoxicity
[4]
  herbicidal activity: high herbicidal activity

## CS(=O)(=O)NC(=O)c1cc(Oc2ccc(C(F)(F)F)cc2Cl)ccc1[N+](=O)[O-] [fomesafen]
[1]
  herbicidal activity: high herbicidal activity
[3]; [6]
  phytotoxicity: without causing significant phytotoxicity
[4]
  herbicidal activity: high herbicidal activity

## CC(C)N(C)S(=O)(=O)NC(=O)c1cc(-n2c(=O)cc(C(F)(F)F)n(C)c2=O)c(F)cc1Cl [saflufenacil]
[1]
  herbicidal activity: high herbicidal activity
[2]; [5]
  phytotoxicity: without causing a significant phytotoxicity
[3]; [6]
  phytotoxicity: without causing significant phytotoxicity
[4]
  herbicidal activity: high herbicidal activity
